Measured values reported in ChEMBL document CHEMBL5512626, “Discovery of potent small molecule inhibitors of histone lysine methyltransferase NSDs” (Eur J Med Chem, 2024).

Legend:
[1] = target: T1, Histone-lysine N-methyltransferase NSD3 (Homo sapiens, UniProt Q9BZ95); test: Inhibition of recombinant NSD3 (1021 to 1322 residues) (unknown origin) expressed in Escherichia coli Rossetta (DE3) using H3K36me1 as substrate incubated for 20 mins in presence of SAM by HTRF assay
T1 sequence (Q9BZ95 whole entry): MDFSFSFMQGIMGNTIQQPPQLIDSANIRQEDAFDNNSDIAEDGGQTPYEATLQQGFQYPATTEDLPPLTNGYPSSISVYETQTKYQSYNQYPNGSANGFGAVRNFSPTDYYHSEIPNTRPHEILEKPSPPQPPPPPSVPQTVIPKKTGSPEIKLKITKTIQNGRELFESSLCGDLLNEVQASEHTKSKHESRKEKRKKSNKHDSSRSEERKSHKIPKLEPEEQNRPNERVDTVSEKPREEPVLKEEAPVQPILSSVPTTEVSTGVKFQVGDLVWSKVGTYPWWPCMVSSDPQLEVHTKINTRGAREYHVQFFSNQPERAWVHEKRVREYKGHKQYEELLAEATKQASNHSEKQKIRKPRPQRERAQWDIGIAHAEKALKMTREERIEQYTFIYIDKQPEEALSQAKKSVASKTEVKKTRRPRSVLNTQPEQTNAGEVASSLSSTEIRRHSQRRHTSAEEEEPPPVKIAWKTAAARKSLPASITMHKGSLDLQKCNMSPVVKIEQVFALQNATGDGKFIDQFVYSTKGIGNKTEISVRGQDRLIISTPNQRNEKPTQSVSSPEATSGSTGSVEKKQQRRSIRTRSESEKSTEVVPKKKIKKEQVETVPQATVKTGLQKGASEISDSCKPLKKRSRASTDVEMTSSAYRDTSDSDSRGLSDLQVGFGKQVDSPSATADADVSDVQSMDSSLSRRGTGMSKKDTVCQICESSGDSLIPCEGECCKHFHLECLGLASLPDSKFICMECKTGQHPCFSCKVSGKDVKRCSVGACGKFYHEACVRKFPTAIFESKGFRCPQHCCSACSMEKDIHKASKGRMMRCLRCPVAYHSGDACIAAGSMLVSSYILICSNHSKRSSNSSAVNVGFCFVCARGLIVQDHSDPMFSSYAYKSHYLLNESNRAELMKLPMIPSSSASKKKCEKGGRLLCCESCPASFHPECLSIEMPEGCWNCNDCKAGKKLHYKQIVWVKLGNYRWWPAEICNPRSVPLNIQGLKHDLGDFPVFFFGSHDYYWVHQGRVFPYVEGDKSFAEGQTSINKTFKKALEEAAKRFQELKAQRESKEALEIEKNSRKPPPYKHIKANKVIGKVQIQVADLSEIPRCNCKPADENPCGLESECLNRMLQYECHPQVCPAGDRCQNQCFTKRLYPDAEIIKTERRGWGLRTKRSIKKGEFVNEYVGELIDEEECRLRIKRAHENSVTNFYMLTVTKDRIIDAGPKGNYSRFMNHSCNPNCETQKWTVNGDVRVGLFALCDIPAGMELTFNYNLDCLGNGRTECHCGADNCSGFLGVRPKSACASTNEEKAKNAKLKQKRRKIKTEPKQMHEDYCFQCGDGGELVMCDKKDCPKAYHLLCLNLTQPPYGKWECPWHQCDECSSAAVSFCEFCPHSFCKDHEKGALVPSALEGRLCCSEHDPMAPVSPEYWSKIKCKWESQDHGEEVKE

[2] = target: T1, Histone-lysine N-methyltransferase NSD3; test: Inhibition of recombinant NSD3 (1021 to 1322 residues) (unknown origin) expressed in Escherichia coli Rossetta (DE3)
[3] = target: T2, Histone-lysine N-methyltransferase NSD2 (Homo sapiens, UniProt O96028); test: Inhibition of recombinant NSD2 (942 to 1240 residues) (unknown origin) expressed in Escherichia coli Rossetta (DE3) using H3K36me1 as substrate incubated for 20 mins in presence of SAM by HTRF assay
T2 sequence (O96028 whole entry): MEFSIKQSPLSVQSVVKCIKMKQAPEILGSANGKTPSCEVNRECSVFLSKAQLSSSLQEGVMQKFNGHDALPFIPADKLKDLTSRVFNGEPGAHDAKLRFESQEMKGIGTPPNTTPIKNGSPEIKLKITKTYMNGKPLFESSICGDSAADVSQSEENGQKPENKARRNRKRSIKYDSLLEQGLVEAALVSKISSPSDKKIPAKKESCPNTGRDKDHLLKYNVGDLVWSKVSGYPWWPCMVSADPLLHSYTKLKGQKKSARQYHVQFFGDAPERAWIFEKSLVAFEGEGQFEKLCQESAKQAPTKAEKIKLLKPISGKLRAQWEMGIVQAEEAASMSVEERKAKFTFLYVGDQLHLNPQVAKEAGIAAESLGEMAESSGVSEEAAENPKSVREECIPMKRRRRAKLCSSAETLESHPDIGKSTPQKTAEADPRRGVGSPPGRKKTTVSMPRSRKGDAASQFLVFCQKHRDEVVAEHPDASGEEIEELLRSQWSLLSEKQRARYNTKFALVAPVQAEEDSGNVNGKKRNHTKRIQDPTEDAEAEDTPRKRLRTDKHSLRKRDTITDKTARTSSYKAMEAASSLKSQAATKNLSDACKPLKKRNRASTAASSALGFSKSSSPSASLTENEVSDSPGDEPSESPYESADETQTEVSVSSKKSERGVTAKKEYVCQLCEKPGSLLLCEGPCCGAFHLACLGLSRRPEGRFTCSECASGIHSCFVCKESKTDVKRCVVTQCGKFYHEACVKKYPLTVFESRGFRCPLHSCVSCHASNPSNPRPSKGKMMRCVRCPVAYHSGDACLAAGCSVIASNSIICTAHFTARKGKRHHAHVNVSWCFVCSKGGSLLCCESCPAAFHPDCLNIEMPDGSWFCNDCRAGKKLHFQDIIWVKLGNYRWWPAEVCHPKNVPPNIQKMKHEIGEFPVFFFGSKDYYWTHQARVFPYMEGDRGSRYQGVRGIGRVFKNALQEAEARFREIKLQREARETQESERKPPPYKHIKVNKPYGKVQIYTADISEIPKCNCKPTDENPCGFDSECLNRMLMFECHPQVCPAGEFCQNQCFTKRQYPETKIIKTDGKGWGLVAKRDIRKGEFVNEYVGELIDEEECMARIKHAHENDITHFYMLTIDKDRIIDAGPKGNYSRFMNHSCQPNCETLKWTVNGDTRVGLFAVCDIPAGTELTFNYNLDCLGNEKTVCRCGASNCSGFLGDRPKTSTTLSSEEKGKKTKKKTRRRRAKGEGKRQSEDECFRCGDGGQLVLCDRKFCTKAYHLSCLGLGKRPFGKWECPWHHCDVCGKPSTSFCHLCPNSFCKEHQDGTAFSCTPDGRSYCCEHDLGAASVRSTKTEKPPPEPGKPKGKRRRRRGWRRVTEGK

[4] = Inhibition of cell proliferation of rat RN 22 cells incubated for 6 days by Real-time Glow MT assay; format: functional, cell-based; details: RN 22, 144 h

Structure (SMILES)	IC50 [1]	IC50 [2] [µM]	other results
Nc1ncnc2c1ncn2CCOc1ccccc1Cl	Not Active	–	–
Nc1ccc(OCCn2cnc3c(N)ncnc32)cc1	Not Active	–	–
CSc1nc2c(N)ncnc2n1CCOc1ccc(C#N)cc1	Not Active	–	IC50 [3]: Not Active
N#Cc1ccc(OCCn2c(Br)nc3c(N)ncnc32)cc1	Not Active	–	–
CC(C)Oc1ccc(OCCn2c(S)nc3c(N)ncnc32)cc1	–	13.8	–
Cc1cc(CN)cc(C)c1-c1ncn(C)c1-c1ccnc2cc(F)ccc12	–	–	IC50 [4]: 13 µM

Now from value to compound, other results behind:

IC50 [1]	IC50 [2] [µM]	Structure (SMILES)	other results
–	32.2	CCOc1ccc(OCCn2c(S)nc3c(N)ncnc32)cc1	–
–	14.3	Cc1ccc(OCCn2c(S)nc3c(N)ncnc32)cc1	–
Not Active	–	N#Cc1ccccc1OCCn1cnc2c(N)ncnc21	–
Not Active	–	CC(=O)Nc1ccc(OCCn2cnc3c(N)ncnc32)cc1	–
